Measurements taken from PubChem BioAssay (NCI).
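Compound exposure: 48 hours, 5 concentrations, 96-well plates. GI50 marks 50% less growth. At the TGI there is no net growth.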

Key:
Test in all cases: inhibition of tumour cell growth, NCI panel, 48 h
HCT-15 colon = test system: HCT-15 colon
K-562 leukemia = test system: K-562 leukemia
SF-295 CNS = test system: SF-295 CNS
MCF7 breast = test system: MCF7 breast
TK-10 renal = test system: TK-10 renal
SK-MEL-5 melanoma = test system: SK-MEL-5 melanoma
CCRF-CEM leukemia = test system: CCRF-CEM leukemia
SF-539 CNS = test system: SF-539 CNS
OVCAR-3 ovarian = test system: OVCAR-3 ovarian
ACHN renal = test system: ACHN renal
T-47D breast = test system: T-47D breast
HOP-62 NSCLC = test system: HOP-62 NSCLC
OVCAR-4 ovarian = test system: OVCAR-4 ovarian
NCI/ADR-RES ovarian = test system: NCI/ADR-RES ovarian
DU-145 prostate = test system: DU-145 prostate
COLO 205 colon = test system: COLO 205 colon
SK-OV-3 ovarian = test system: SK-OV-3 ovarian
HCC-2998 colon = test system: HCC-2998 colon
CAKI-1 renal = test system: CAKI-1 renal
BT-549 breast = test system: BT-549 breast
HS 578T breast = test system: HS 578T breast
IGROV1 ovarian = test system: IGROV1 ovarian
PC-3 prostate = test system: PC-3 prostate
SK-MEL-28 melanoma = test system: SK-MEL-28 melanoma
NCI-H522 lung = test system: NCI-H522 lung
HT29 colon = test system: HT29 colon
M14 melanoma = test system: M14 melanoma
SNB-75 CNS = test system: SNB-75 CNS
MOLT-4 leukemia = test system: MOLT-4 leukemia
786-0 renal = test system: 786-0 renal
SF-268 CNS = test system: SF-268 CNS
HOP-92 NSCLC = test system: HOP-92 NSCLC
NCI-H226 lung = test system: NCI-H226 lung
KM12 colon = test system: KM12 colon
SW-620 colon = test system: SW-620 colon
OVCAR-8 ovarian = test system: OVCAR-8 ovarian
A549 NSCLC = test system: A549 NSCLC
HCT-116 colon = test system: HCT-116 colon
RXF 393 renal = test system: RXF 393 renal
SNB-19 CNS = test system: SNB-19 CNS
RPMI-8226 leukemia = test system: RPMI-8226 leukemia
OVCAR-5 ovarian = test system: OVCAR-5 ovarian
UACC-257 melanoma = test system: UACC-257 melanoma
SK-MEL-2 melanoma = test system: SK-MEL-2 melanoma
LOX IMVI melanoma = test system: LOX IMVI melanoma
NCI-H23 lung = test system: NCI-H23 lung
EKVX NSCLC = test system: EKVX NSCLC
U251 CNS = test system: U251 CNS
SR leukemia = test system: SR leukemia
HL-60(TB) leukemia = test system: HL-60(TB) leukemia
A498 renal = test system: A498 renal
MDA-MB-435 = test system: MDA-MB-435

CN(C)c1ccc(/C=c2/c3ccccc3n3c2cc(/C=C/c2ccccc2)[n+]3C)cc1
TGI (HCT-15 colon): 3.49 µM
TGI (K-562 leukemia): > 100 µM
TGI (SF-295 CNS): 0.944 µM
TGI (MCF7 breast): 0.591 µM
TGI (TK-10 renal): 3.77 µM
TGI (SK-MEL-5 melanoma): 0.272 µM
TGI (CCRF-CEM leukemia): 0.0821 µM
TGI (SF-539 CNS): 0.132 µM
TGI (OVCAR-3 ovarian): 0.795 µM
TGI (ACHN renal): 1.22 µM
TGI (T-47D breast): 0.123 µM
TGI (HOP-62 NSCLC): 1.16 µM
TGI (OVCAR-4 ovarian): 1.86 µM
TGI (NCI/ADR-RES ovarian): > 50.6 µM
TGI (DU-145 prostate): 1.37 µM
TGI (COLO 205 colon): 0.315 µM
TGI (SK-OV-3 ovarian): 1.14 µM
TGI (HCC-2998 colon): 1.08 µM
TGI (CAKI-1 renal): 51.2 µM

CCOC(=O)c1c(-c2ccccc2)[n+](=O)c2cc(F)c(F)cc2n1[O-]
GI50 (BT-549 breast): 1.6 µM
TGI (BT-549 breast): 3.26 µM
GI50 (HCT-15 colon): 0.215 µM
TGI (HCT-15 colon): 0.441 µM
GI50 (HS 578T breast): 2.38 µM
TGI (HS 578T breast): 6.26 µM
GI50 (K-562 leukemia): 0.702 µM
TGI (K-562 leukemia): > 100 µM
GI50 (IGROV1 ovarian): 0.701 µM
TGI (IGROV1 ovarian): > 100 µM
GI50 (PC-3 prostate): 1.65 µM
TGI (PC-3 prostate): 3.16 µM
GI50 (SF-295 CNS): 2.08 µM
TGI (SF-295 CNS): 3.84 µM
GI50 (SK-MEL-28 melanoma): 1.73 µM
TGI (SK-MEL-28 melanoma): 3.34 µM
GI50 (NCI-H522 lung): 36.5 µM
TGI (NCI-H522 lung): > 100 µM
GI50 (MCF7 breast): 2.76 µM
TGI (MCF7 breast): 10.5 µM
GI50 (HT29 colon): 1.51 µM
TGI (HT29 colon): 3.27 µM
GI50 (M14 melanoma): 1.11 µM
TGI (M14 melanoma): 2.34 µM
GI50 (TK-10 renal): 16.6 µM
TGI (TK-10 renal): 32 µM
GI50 (SNB-75 CNS): 1.75 µM
TGI (SNB-75 CNS): 3.64 µM
GI50 (SK-MEL-5 melanoma): 1.53 µM
TGI (SK-MEL-5 melanoma): 3.52 µM
GI50 (MOLT-4 leukemia): 0.415 µM
TGI (MOLT-4 leukemia): > 100 µM
GI50 (786-0 renal): 2.01 µM
TGI (786-0 renal): 3.64 µM
GI50 (SF-539 CNS): 1.95 µM
TGI (SF-539 CNS): 3.68 µM
GI50 (SF-268 CNS): 1.66 µM
TGI (SF-268 CNS): 4.07 µM
GI50 (OVCAR-3 ovarian): 1.23 µM
TGI (OVCAR-3 ovarian): 2.61 µM
GI50 (HOP-92 NSCLC): 1.14 µM
TGI (HOP-92 NSCLC): 2.73 µM
GI50 (NCI-H226 lung): 2.73 µM
TGI (NCI-H226 lung): 6.92 µM
GI50 (ACHN renal): 1.38 µM
TGI (ACHN renal): 2.8 µM
GI50 (KM12 colon): 2.01 µM
TGI (KM12 colon): 9.91 µM
GI50 (SW-620 colon): 0.494 µM
TGI (SW-620 colon): 3.57 µM
GI50 (OVCAR-8 ovarian): 2.06 µM
TGI (OVCAR-8 ovarian): 4.43 µM
GI50 (HOP-62 NSCLC): 1.42 µM
TGI (HOP-62 NSCLC): 3.24 µM
GI50 (A549 NSCLC): 2.14 µM
TGI (A549 NSCLC): 4.46 µM
GI50 (OVCAR-4 ovarian): 0.624 µM
TGI (OVCAR-4 ovarian): 2.16 µM
GI50 (HCT-116 colon): 0.238 µM
TGI (HCT-116 colon): 0.584 µM
GI50 (NCI/ADR-RES ovarian): 0.924 µM
TGI (NCI/ADR-RES ovarian): 2.66 µM
GI50 (RXF 393 renal): 1.38 µM
TGI (RXF 393 renal): 4.1 µM
GI50 (SNB-19 CNS): 1.95 µM
TGI (SNB-19 CNS): 3.45 µM
GI50 (RPMI-8226 leukemia): 1.02 µM
TGI (RPMI-8226 leukemia): 3.98 µM
GI50 (OVCAR-5 ovarian): 2.23 µM
TGI (OVCAR-5 ovarian): 4.13 µM
GI50 (DU-145 prostate): 1.78 µM
TGI (DU-145 prostate): 3.55 µM
GI50 (UACC-257 melanoma): 2.09 µM
TGI (UACC-257 melanoma): 3.88 µM
GI50 (SK-MEL-2 melanoma): 3.47 µM
TGI (SK-MEL-2 melanoma): > 100 µM
GI50 (LOX IMVI melanoma): 0.157 µM
TGI (LOX IMVI melanoma): 0.298 µM
GI50 (NCI-H23 lung): 1.42 µM
TGI (NCI-H23 lung): 3.13 µM
GI50 (EKVX NSCLC): 1.73 µM
TGI (EKVX NSCLC): 3.47 µM
GI50 (U251 CNS): 1.25 µM
TGI (U251 CNS): 2.71 µM
GI50 (SR leukemia): 0.187 µM
TGI (SR leukemia): > 100 µM
GI50 (HL-60(TB) leukemia): 0.717 µM
TGI (HL-60(TB) leukemia): 3.77 µM
GI50 (A498 renal): 5.02 µM
TGI (A498 renal): 17 µM
GI50 (SK-OV-3 ovarian): 2.03 µM
TGI (SK-OV-3 ovarian): 3.57 µM
GI50 (MDA-MB-435): 1.93 µM
TGI (MDA-MB-435): 3.6 µM
GI50 (CAKI-1 renal): 1.61 µM
TGI (CAKI-1 renal): 3.12 µM
